Laboratory results reported in patent US20220193029A1, “BRYOSTATIN COMPOUNDS FOR ENHANCEMENT OF IMMUNOTHERAPY” (priority 2019, published 2022).

Key:
PKCδ-GFP fusion protein = experiment: PKCδ-GFP translocation assay in living CHO-k1 cells (confocal microscopy); format: cell-based, Chinese hamster; conditions: for concentration* (minimum effective concentration required to induce translocation of PKC-GFP to the membrane) / % Translocation: CHO-k1 cells; for % Translocation: maximum translocation of PKCδ-GFP to the plasma membrane at the concentration printed in the same cell, SUW212: only brief translocation observed; for PKC translocation behavior / dynamics of PKC activation: time course, FIG. 6 panels C-D
Procedure: Because a prerequisite for PKC pathway involvement is binding to PKC, compounds were initially evaluated for PKC affinity in a cell-free competitive binding assay with tritiated phorbol dibutyrate ([^3H]-PDBu). Assays were performed with representative members of both the conventional (PKCα) and novel (PKCδ) PKC families. Subsequently, compounds were assayed for PKC activation in living cells using an isoform translocation assay.
Chinese hamster ovary factor K1 (CHO-k1, ATCC) cells were cultured in F-12 Kaighn's media (Hyclone, 10% fetal bovine serum, 1% penicillin/streptomycin added, referred to as F-12+/+ below) at 37° C. in an incubator (5% CO2). Cell cultures were maintained by splitting cells 1:3 when they reached ˜75-100% confluence (every 2-3 days) as follows:
1 mL of the cell suspension was then added to 9 mL of fresh F-12+/+ and the sample was sub-cultured until reaching confluence (˜2-3 days).
Cells were counted using a Countess II Automated Cell Counter (Fisher). The cell suspension was diluted to 240,000 cells/mL with fresh F-12+/+ and 2.5 mL of this diluted stock was added to one well in a 6-well plate. The cells were then cultured for 24 hours.
F-12+/+ was aspirated and cells were washed with F-12−/−. 2 mL of fresh F-12−/− was then added to each well, taking care not to disturb adherent cells. For each well of CHO-k1 cells, 12.5 μL Lipofectamine 2000 reagent (Invitrogen) was added to 250 μL Opti-MEM reduced serum media (Invitrogen) in a polypropylene tube and incubated for 20 minutes at RT. Meanwhile, for each well, 4 μg of PKCδ-GFP pDNA and 250 μL Opti-MEM reduced serum media was added to a separate polypropylene tube. 250 μL of the Lipofectamine 2000 suspension was added to the DNA suspension and the solution incubated for 30 minutes at RT. 500 μL of the Lipofectamine/DNA suspension was added to the respective wells of the 6-well plate. The cells were then incubated at 37° C. (5% CO2) for ˜24 hrs.
F-12+/+ was aspirated and cells were washed with F-12−/−. 2.4 mL of fresh F-12−/− was then added to each well, taking care not to disturb adherent cells. A 4 μg aliquot of PKCδ-GFP pDNA was added to PBS (pH 5.5, final volume 100 μL). 5.6 μL of DA 13:11 (2 mM stock in DMSO) was then added to the DNA solution, and the mixture was gently mixed (by flicking) for 20 seconds, at which point it was added directly to the respective wells of the 6-well plate. The cells were then incubated at 37° C. (5% C02) for ˜24 hrs.
After incubation, the media was aspirated and cells were washed with PBS (2.0 mL) and trypsinized (500 μL). The cell suspension was then diluted with 2.0 mL F-12+/+. 200 μL aliquots were added to 3 wells of a Lab-Tek II 4-well chambered coverglass slide (Fisher), producing 4 slides in total, each with three wells of cells. The cell suspension was directly diluted with 600 μL of additional F-12+/+. The resulting samples were incubated for ˜24 hrs. prior to imaging.
Fluorescent images were obtained using a Leica SP8 White Light Confocal microscope and the Leica AF software package. Prior to analysis, media was aspirated and 800 μL of PBS (Hyclone, without Ca^2+ or Mg^2+) supplemented with glucose (10 mM) was added to each well of the chambered coverglass slide. Bryostatin and bryostatin analogs were diluted to the appropriate concentration in 200 μL of 10 mM glucose in PBS. Cells were located for imaging and data was recorded for three wells in parallel, imaging at predetermined positions in each well using adaptive focus control. Cells were imaged at 30 second intervals following the addition of compound (set to t=0) for 20-40 minutes. Data were recorded at room temperature. Images were exported as .lif files and fluorescence intensity was analyzed using FIJI (NIH) software.

[1] = test system: CD22 surface expression in NALM6 cells; experiment: CD22 surface expression assay by flow cytometry; format: cell-based, human; conditions: NALM6 cells; for fold induction at 0.001 µM: Homo sapiens, NALM-6, read-out: Fold increase CD22 expression; for fold induction at 0.001 µM / Fold increase CD22 expression: At 1 nM, relative to DMSO control
Procedure: Cell cultures were maintained between 4×10^5 and 3×10^6 cells/mL according to vendor instructions.
Cell suspension from a confluent T75 flask (Fisher) was transferred to a 15 mL falcon tube and centrifuged at 1100 rpm for 7 minutes. […] Cells were counted using a Countess II Automated Cell Counter (Fisher). […] 199 μL of this stock was added to 24 wells (enough for triplicate measurements for 8 different experimental conditions) in a 96-well plate. […] 1 μL of DMSO or the appropriate stock solution of compound in DMSO was added to each well. Cells were incubated for 24 hours, at which point the cell suspensions were transferred to 1.5 mL Eppendorf tubes and diluted with 1.0 mL of PBS (Hyclone, without Ca^2+ or Mg^2+). Samples were centrifuged at 2000 rpm for 5 min at RT. […] Cells were sub-cultured between 2×10^5 and 3×10^6 cells/mL in 24-well plates for an additional 24 hrs-7 days, at which point CD22 surface expression was assayed by flow cytometry.
Cells from one well were counted using a Countess II Automated Cell Counter (Fisher). ˜200,000-300,000 cells from each well were added to 1.5 mL Eppendorf tubes containing PBS (final volume ˜1.2 mL). The cell suspensions were centrifuged at 1500 rpm for 7 minutes at 4° C. The supernatant was aspirated, and the cell pellet was resuspended in 99 μL of pre-chilled FACS buffer (0.5% w/v BSA in PBS). […] Samples were then diluted with an additional 1.0 mL of FACS buffer and centrifuged at 1500 rpm for 7 minutes at 4° C. […] Cells were stained with DAPI and CD22 surface expression was analyzed using the FACScan Analyzer at the Stanford Shared FACS Facility. Data analysis was performed using FlowJo and Microsoft Excel.

| SMILES | cytosolic PKC translocated (PKCδ-GFP fusion protein; 1000 nM) | concentration* (minimum effective concentration required to induce translocation of PKC-GFP to the membrane) (PKCδ-GFP fusion protein) | % Translocation (PKCδ-GFP fusion protein) | fold induction at 0.001 µM [1] | PKC translocation behavior / dynamics of PKC activation (PKCδ-GFP fusion protein) | Fold increase CD22 expression [1] | activity in the CD22 induction assay, in words ([1]; 1 nM or 10 nM, 24 hours) |
| --- | --- | --- | --- | --- | --- | --- | --- |
| CCCCCC#CC(=O)O[C@H]1/C(=C/C(=O)OC)C[C@H]2C[C@H]([C@@H](C)O)OC(=O)C[C@H](O)C[C@@H]3C[C@H](OC(C)=O)C(C)(C)[C@](O)(C[C@@H]4C[C@@](O)(CO)C[C@H](/C=C/C(C)(C)[C@]1(O)O2)O4)O3 [SUW203] | ~50% | 1000 nM | 50% | 1.16 | – | – | – |
| CCC/C=C/C=C/C(=O)O[C@H]1/C(=C/C(=O)OC)C[C@H]2C[C@H]([C@@H](C)O)OC(=O)C[C@H](O)C[C@@H]3C[C@H](OC(C)=O)C(C)(C)[C@](O)(C[C@@H]4C[C@H](OC(C)=O)C[C@H](/C=C/C(C)(C)[C@]1(O)O2)O4)O3 [SUW206] | – | 200 nM | 60% | 1.63 | almost identical behavior both to each other and to bryostatin 1 | – | – |
| CCC/C=C/C=C/C(=O)O[C@H]1/C(=C/C(=O)OC)C[C@H]2C[C@H]([C@@H](C)O)OC(=O)C[C@H](O)C[C@@H]3C[C@H](OC(C)=O)C(C)(C)[C@](O)(C[C@@H]4C[C@@H](OC(C)=O)C[C@H](/C=C/C(C)(C)[C@]1(O)O2)O4)O3 [SUW207] | – | 200 nM | 60% | 1.33 | almost identical behavior both to each other and to bryostatin 1 | – | – |
| CCCC=CC=CC(=O)OC1C(=CC(=O)OC)CC2CC(C(C)O)OC(=O)CC(O)CC3CC(OC(C)=O)C(C)(C)C(O)(CC4CC(=CC(=O)OCC)CC(C=CC(C)(C)C1(O)O2)O4)O3 (centres unmarked) [SUW217] | – | 200 nM | 75% | – | – | 1.97 fold | – |
| CCCC=CC=CC(=O)OC1C(=CC(=O)OC)CC2CC(C(C)O)OC(=O)CC(O)CC3CC(OC(C)=O)C(C)(C)C(O)(CC4CC(=CC(=O)OCC)CC(C=CC(C)(C)C1(O)O2)O4)O3 (centres unmarked) [SUW218] | – | 200 nM | 55% | – | more sustained linear activation dynamics | 1.92 fold | – |
| CCCCCCCC(=O)O[C@H]1/C(=C/C(=O)OC)C[C@H]2C[C@H]([C@@H](C)O)OC(=O)C[C@H](O)C[C@@H]3C[C@H](OC(C)=O)C(C)(C)[C@](O)(C[C@@H]4C[C@@H](C)C[C@H](/C=C/C(C)(C)[C@]1(O)O2)O4)O3 [SUW226] | – | 200 nM | 75% | 1.76 | – | – | – |
| C=CCOC(=O)/C=C1/C[C@H]2C[C@]3(O)O[C@H](C[C@@H](O)CC(=O)O[C@@H]([C@@H](C)O)C[C@@H]4C/C(=C\C(=O)OC)[C@H](OC(=O)/C=C/C=C/CCC)[C@@](O)(O4)C(C)(C)/C=C/[C@@H](C1)O2)C[C@H](OC(C)=O)C3(C)C [SUW229] | – | 200 nM | 50% | – | more sustained linear activation dynamics | – | top performer |
